Assay results taken from publication PMC12389136, “Insights into the Structural Patterns in Human Glioblastoma Cell Line SF268 Activity and ADMET Prediction of Curcumin Derivatives” (Pharmaceutics, 2025).

Tested on: ROS production in SF268 cells
Assay: Intracellular reactive oxygen species production (DCFDA)
Assay type: cell-based, Human
Conditions: derivatives 10 µg/mL for 3 h, H2O2 100 µM positive control
Description: Intracellular ROS formation was measured by fluorometry with the reactive dye chloromethyl dichlorodihydrofluorescein diacetate (DCFDA; Molecular Probes). […] Cultures were incubated with curcumin derivatives at 10 μg/mL for 3 h, after which the ROS-specific fluorescent dye DCFDA solution was added to the cells. After 30 min, fluorescence was measured at a wavelength of 485 nm (excitation)/535 nm (emission) using a microplate reader (Molecular Devices, San Jose, CA, USA).
Intracellular ROS production was tested following the treatment of SF268 cells with the curcumin derivatives at 10 μg/mL by fluorometry after staining with DCFDA.
Figure 7 Effects of curcumin derivatives on ROS generation. Cells were treated with curcumin derivatives at 10 μg/mL for 3 h. ROS production was determined using the DCFH-DA assay.

Row | SMILES | ROS production
1 | OO [Compound H2O2, Hydrogen peroxide] | distinct ROS production
2 | O=C1O[C@H]([C@@H](O)CO)C(O)=C1O [ascorbic acid] | expected decrease
